The text below walks through data of patent publication US20100197789A1, “ANTI-OBESITY AGENT AND USE THEREOF” (National University Corporation Nagoya University, priority 2006, published 2010).

In assay [1] the test system is db/db mice. As to the kind of experiment: Rectal temperature, oxygen consumption and motor activity, db/db mice. In kind it is in vivo, mouse. The note with it: enantiomer 1.1 mg/dl in drinking water for 5 weeks, measured at 20 o'clock for 3 days. On the procedure: (§1) 5 week-old male C57BL/KsJ-db/db mice (db/db mice: body weight 19 to 25 g, Japan SLC, Inc.) were purchased and individually fed in tip cages. For the db/db mice, normal pellet diet (CE-2) was administered under free water intake and free food intake. A body weight and a food intake amount over 24 hours were measured everyday from the start of feeding. On day 3 after the start of feeding, blood was taken from an orbit after 6 hour-fasting and a blood glucose level and a blood insulin concentration were measured. The db/db mice were divided into three groups (10 mice per each group) so that a body weight, a 24 hour-food intake amount, a blood glucose level, and a blood insulin concentration were equal, and defined to be a control group, an R-baclofen treated group, and an S-baclofen treated group. […] After division into the groups, from day 5 after the start of feeding, R-baclofen and S-baclofen were dissolved in drinking water and 5 week-continuous oral administration was started. Both of R-baclofen and S-baclofen were dissolved in drinking water at a concentration of 1.1 mg/dl used in the low concentration treated group in the experiment of baclofen racemic mixture administration. A food intake amount and a body weight were measured over time, and a rectal temperature was measured 5 weeks after the start of the administration. Blood was taken after the 5-week administration of baclofen, and the db/db mice were sacrificed by cervical luxation.
R-baclofen and S-baclofen were administered to db/db/mice and (±)-baclofen was administered to db/^+m mice respectively for 5 weeks, and rectal temperatures were then continuously measured for 3 days at 20 o'clock immediately before the dark period when feed intake was started in the mice. The method of measuring rectal temperatures was as follows. That is, the rectal temperatures were measured by using a digital thermistor (manufactured by NATSUME SEISAKUSHO CO., LTD.).
(±)-baclofen was orally administered to db/db mice and DIO mice for 5 weeks and rectal temperatures were measured 5 weeks after the start of the administration, and oxygen consumptions and motor activity were measured by using a small animal metabolism measuring system (model MK-5000: Muromachi Kikai Co., Ltd.).

The subject of assay [2] is db/db mice. As to the kind of experiment: Food intake amount and body weight, 5 week-continuous oral administration in drinking water, db/db mice. The assay is classed as in vivo, mouse. The following applies: enantiomer 1.1 mg/dl in drinking water, oral, 5 weeks; for body weight increase / food intake amount: vs control. On the procedure:
5 week-old male C57BL/KsJ-db/db mice (db/db mice: body weight 19 to 25 g, Japan SLC, Inc.) were purchased and individually fed in tip cages. For the db/db mice, normal pellet diet (CE-2) was administered under free water intake and free food intake. A body weight and a food intake amount over 24 hours were measured every day from the start of feeding. On day 3 after the start of feeding, blood was taken from an orbit after 6 hour-fasting and a blood glucose level and a blood insulin concentration were measured. The db/db mice were divided into three groups (10 mice per each group) so that a body weight, a 24 hour-food intake amount, a blood glucose level, and a blood insulin concentration were equal, and defined to be a control group, a low concentration baclofen treated group, and a high concentration baclofen treated group. After division into the groups, from day 5 after the start of feeding, (±)-baclofen was dissolved in drinking water and 5 week-continuous oral administration to the baclofen treated groups was started. (±)-baclofen was dissolved in drinking water at a concentration of 1.1 mg/dl in the low concentration treated group and at a concentration of 2.7 mg/dl in the high concentration treated group. A food intake amount and a body weight were measured over time during the period of 5 week-administration of (±)-baclofen, blood was taken after the end of the 5-week administration, and the db/db mice were sacrificed by cervical luxation. Brains, epididymal white adipose tissues, subcutaneous white adipose tissues and brown adipose tissues were surgically removed. The brains and brown adipose tissues were frozen in dry ice and liquid nitrogen immediately after the removal and then preserved at −80° C. The epididymal white adipose tissues and subcutaneous white adipose tissues were measured in weights, and then fixed in 4% formaldehyde and preserved at 4° C.
as §1, with “measured.” for “measured. The db/db mice were divided into three groups (10 mice per each group) so that a body weight, a 24 hour-food intake amount, a blood glucose level, and a blood insulin concentration were equal, and defined to be a control group, an R-baclofen treated group, and an S-baclofen treated group.”, “Both of R-baclofen and S-baclofen were dissolved in drinking water at a concentration of 1.1 mg/dl used in the low concentration treated group in the experiment of baclofen racemic mixture administration.” left out
5 week-old male C57BL/KsJ-db/db mice (db/db mice: body weight 19 to 25 g, Japan SLC, Inc.) were purchased and individually fed in tip cages. Normal pellet diet (CE-2) was administered to the db/db mice under free water intake and free food intake. A body weight and a food intake amount over 24 hours were measured every day from the start of feeding. On day 3 after the start of feeding, blood was taken from an orbit after 6 hour-fasting, and a blood glucose level and a blood insulin concentration were measured. The db/db mice were divided into five groups (10 mice per each group) so that a body weight, a 24 hour-food intake amount, a blood glucose level, and a blood insulin concentration were equal, and defined to be a control group and baclofen treated groups. (±)-baclofen was dissolved in drinking water at respective concentrations of 4×10^−6 M, 10×10^−6 M, 40×10^−6 M, and 100×10^−6 M, and continuously orally administered to the baclofen treated groups for 5 weeks. A food intake amount, a body weight and a water-drinking amount were measured over time during the period of 5 week-administration of (±)-baclofen. […]

On to `Cl.NC[C@@H](CC(=O)O)c1ccc(Cl)cc1` [S-baclofen, S(−)-Baclofen hydrochloride], for which, in assay [1], the rectal temperature result is “significantly increased”. In addition, in assay [2], the “time after start of administration from which body weight increase suppression was significant” value came to 5 weeks, the “time after start of administration from which food intake suppression was significant” value is recorded as 5 weeks, the body weight increase entry is listed as “significant suppression” and the food intake amount result is reported as “significant suppression”.

With `Cl.NC[C@H](CC(=O)O)c1ccc(Cl)cc1` [R-baclofen, R(+)-Baclofen hydrochloride], in assay [1], the rectal temperature result was “significantly increased”. Also, in assay [2], the “time after start of administration from which body weight increase suppression was significant” value turned out to be 2 weeks, the “time after start of administration from which food intake suppression was significant” value came out at 2 weeks, the body weight increase result is on record as “significantly suppressed” and the food intake amount result is listed as “significantly suppressed”.
